Values of other authors in US12349704B2, “High quality cultured meat, compositions and methods for producing same” (ALEPH FARMS LTD., priority 2018, dated 2025).
Values belong to the compound of their own block, whether it stands above or below them.

What was measured:
[1] = not given; remark: listed apart in the source
[2] = dietary or formulated lycopene

SMILES: NCC(=O)[O-].NCC(=O)[O-].[Fe+2] [Ferrous bisglycinate]
tolerability of dietary iron supplementation (approximately 15 to 120 mg iron/day, iron-deficient young children, adult males, pregnant and non-pregnant females): well tolerated
adverse effects in field trials of iron fortification of foods (between 2 and 23 mg/day of supplemental dietary iron): without any reports of adverse effects

daily intake that may lead to hypercarotenemia (yellowish coloration of the skin, harmless and reversible) [1]: > 30 mg
SMILES: CC1=C(/C=C/C(C)=C/C=C/C(C)=C/C=C/C=C(C)/C=C/C=C(C)/C=C/C2=C(C)CCCC2(C)C)C(C)(C)CCC1 [beta-carotene]

SMILES: CC(C)=CCC/C(C)=C/C=C/C(C)=C/C=C/C(C)=C/C=C/C=C(C)/C=C/C=C(C)/C=C/C=C(\C)CCC=C(C)C [lycopene]
intake levels at which no adverse effects were observed [2]: up to 3 g/(kg*d)
